Experimental data from patent US12653816B2, “Composition for inhibiting growth of cancer stem cells” (INDUSTRY-ACADEMIC COOPERATION FOUNDATION, YONSEI UNIVERSITY, priority 2020, dated 2026).

How the values were obtained:
[1] = tested on: human colonic myofibroblasts; details: cited from earlier work
[2] = tested on: murine model of skin injury; details: cited from earlier work
[3] = tested on: lung fibrosis lung fibroblasts; details: cited from earlier work
[4] = tested on: HS746T cell line; assay: Cell viability assay (Cell Counting Kit-8), HS746T; assay type: cell-based, human; details: for antitumor effect (number of living cells) / antitumor effect (cell viability): treatment alone, 48 hours; for antitumor effect (number of living cells): cisplatin 5 and 10 μM, compounds 5 and 10 μg/ml, FIGS. 7A and 7B; for antitumor effect (cell viability): HS746T stem-like cells, various concentrations, FIG. 1
Description: (§1) In order to evaluate the ability to inhibit the growth or metastasis of cancer cells or cancer stem cells in the examples according to the present invention, the present inventors obtained MKN1 and HS746T, which are cell lines having human gastric cancer stem cell characteristics, and SNU601, YCC7 and NCIN87 cells, which are human gastric cancer cell lines, from the American Type Culture Collection (ATCC) and the Korean Cell Line Bank (KCRB). The cell lines were cultured in different culture media and culture conditions according to ATCC's or KCRB's guidelines. The MKN1, SNU601, and NCIN87 cell lines were cultured in RPMI1640 medium containing 10% fetal bovine serum (FBS), 2 mM L-glutamine, 100 U/ml penicillin and 100 μg/ml streptomycin, and the HS746T and YCC7 Cell lines were cultured in DMEM containing 10% FBS, 2 mM L-glutamine, 100 U/ml penicillin and 100 μg/ml streptomycin. All the cell lines were cultured at 37° C. under 5% CO2, and subjected to a mycoplasma contamination test.
(§2) Each of the cell lines cultured in the Preparation Example was dispensed into a well plate at a density of 1×10^4 cells per well, and cultured overnight at 37° C. under 5% CO2. Then, the HS746T and MKN1 cell lines, which are gastric cancer stem-like cells, and the YCC7 and NCIN87 cell lines, which are gastric cancer cells, were treated with various concentrations of each of cisplatin (CDDP), which is an anticancer drug currently frequently used in the treatment of gastric cancer patients, and the compound CCG-232601 which is an MRTF-A inhibitor. 100 μL of each cell culture and 10 μL of reaction buffer (CCK) were mixed together, placed in a 96-well plate, and incubated for 1 hour at room temperature, and then the absorbance at a wavelength of 450 nm was measured using a spectrophotometer (Synergy HTX Multi-Reader, BioTek, Winooski, VT, USA). At the same time, the number of cells in each sample was measured with a cell viability assay kit (Cell Counting Kit-8), and the measured value was converted so that the measured value for the same number of cells in each sample could be compared with the number of cells in the negative control group. The experimental results presented are the mean values of the repeated experiments.
The present inventors attempted to further confirm the therapeutic effects of the compounds CCG-222740 and CCG-203971, which are compounds other than the compound CCG-232601 corresponding to the MRTFA/SRF inhibitors, against cancer stem cells. As reviewed in Example 1 above, it has been confirmed that the gastric cancer cell line HS746T is of a stem cell-like gastric cancer type, and thus is resistant to the anticancer drug cisplatin. The HS746T cell line was treated with cisplatin and the compounds CCG-222740 and CCG-203971 corresponding to MRTFA/SRF inhibitors. For cell treatment, cisplatin was used at concentrations of 0 μM, 5 μM and 10 μM, and the compound CCG-222740 or CCG-203971 was used at concentrations of 0 μg/ml, 5 μg/ml and 10 μg/ml. The control group was treated with the same amount of DMSO as the compound used for each experimental group. After 48 hours, the number of living cells was measured using a cell viability assay kit (Cell Counting Kit-8), and the results are shown in FIGS. 7A and 7B.

[5] = tested on: preclinical model of fibrosis; details: cited from earlier work
[6] = tested on: alpha smooth muscle actin protein; details: cited from earlier work
[7] = tested on: NCIN87 cell line; assay: Cell viability assay (Cell Counting Kit-8), NCIN87; assay type: cell-based, human; details: NCIN87 gastric cancer cells, treatment alone, various concentrations, 48 hours, FIG. 1
Description: (§3) In order to evaluate the ability to inhibit the growth or metastasis of cancer cells or cancer stem cells in the examples according to the present invention, the present inventors obtained MKN1 and HS746T, which are cell lines having human gastric cancer stem cell characteristics, and SNU601, YCC7 and NCIN87 cells, which are human gastric cancer cell lines, from the American Type Culture Collection (ATCC) and the Korean Cell Line Bank (KCRB). The cell lines were cultured in different culture media and culture conditions according to ATCC's or KCRB's guidelines. […]
(§4) Each of the cell lines cultured in the Preparation Example was dispensed into a well plate at a density of 1×10^4 cells per well, and cultured overnight at 37° C. under 5% CO2. […] 100 μL of each cell culture and 10 μL of reaction buffer (CCK) were mixed together, placed in a 96-well plate, and incubated for 1 hour at room temperature, and then the absorbance at a wavelength of 450 nm was measured using a spectrophotometer (Synergy HTX Multi-Reader, BioTek, Winooski, VT, USA). At the same time, the number of cells in each sample was measured with a cell viability assay kit (Cell Counting Kit-8), and the measured value was converted so that the measured value for the same number of cells in each sample could be compared with the number of cells in the negative control group. […]

[8] = tested on: YCC7 cell line; assay: Cell viability assay (Cell Counting Kit-8), YCC7; assay type: cell-based, human; details: YCC7 gastric cancer cells, treatment alone, various concentrations, 48 hours, FIG. 1
Description: as §3, §4

[9] = tested on: HS746T cell line; assay: Transwell invasion assay, HS746T; assay type: cell-based, human; details: 10 μg/ml, 12 hours, Matrigel transwell, FIG. 3
Description: (§5) Transwell invasion assay was performed with or without CCG-232601 treatment. The invasion ability was measured using a 6.5-mm transwell with an 8.0 μm-pore polycarbonate membrane insert (Corning) after coating with Matrigel (Corning) diluted to 0.67 μg/μl with serum-free medium. Then, cells (2×10^4 cells/well) were suspended in 200 μL of a serum-free medium with vehicle or in 10 μg/ml of CCG-232601, and 1,000 μL of culture medium containing 10% FBS was added to the lower chamber. After 12 hours, the migrated cells were stained with 0.2% crystal violet and observed under an optical microscope. The average number of cells that penetrated the membrane was calculated with ImageJ (NIH) from three randomly selected high-power fields and from two independent experiments, and the results are shown in FIG. 3.

[10] = tested on: MKN1 cell line; assay: Oxygen consumption rate and extracellular acidification rate (Seahorse), MKN1; assay type: cell-based, human
Description: (§6) In particular, in order to confirm that the compound CCG-232601 has an excellent inhibitory effect on cancer stem cell growth, the oxygen consumption rates (OCRs) and extracellular acidification rates (ECARs) of the stem-like cell lines HS746T and MKN1 having high resistance to metabolic stress were measured and the results are shown in FIG. 2. More specifically, each of the cell lines was seeded in Seahorse normal culture medium at 70 to 80% confluency, and mitochondrial oxidation and glycolytic activity were measured by measuring oxygen consumption rate (OCR, pmol/min/μg protein) and extracellular acidification rate (ECAR, mpH/min/μg protein) using an XF96 or XFp extracellular flux analyzer (Agilent). Mitochondrial oxidation ability of cells pretreated for 1 hour with or without 10 mM β-HB (Sigma) was evaluated using the Seahorse XF mito stress kit (Agilent). To address changes in oxidation and glycolysis upon treatment with CCG-232601, cells were pretreated overnight with vehicle or the inhibitor, and finally 10 mM β-hydroxybutyrate was added during the first injection.

[11] = tested on: MKN1 cell line; assay: Transwell invasion assay, MKN1; assay type: cell-based, human; details: MKN1, 10 μg/ml, 12 hours, Matrigel transwell, FIG. 3
Description: as §5

[12] = tested on: MKN1 cell line; assay: Cell viability assay (Cell Counting Kit-8), MKN1; assay type: cell-based, human; details: for antitumor effect (cell viability): MKN1 stem-like cells, treatment alone, various concentrations, 48 hours, FIG. 1
Description: as §1, §2
Accordingly, in order to evaluate the effect of co-administration of the compound CCG-232601, the survival and growth inhibitory effects of administration of CCG-232601 and cisplatin (CDDP) alone or in combination to the MKN1 cell line were evaluated using a cell viability assay kit (Cell Counting Kit-8; CCK-8). In order to evaluate the effect of administration in combination compared to that of administration alone, 5 μg/ml of CCG-232601 was firstly administered to the MKN1 cell line, and after 24 hours, 5 μM cisplatin (CDDP) was secondarily administered. After 24 hours therefrom, the results were checked with a cell viability analysis kit (CCK-8 assay).

[13] = tested on: bleomycin-induced dermal fibrosis; details: administered orally to mice; cited from earlier work
[14] = tested on: HS746T cell line; assay: Oxygen consumption rate and extracellular acidification rate (Seahorse), HS746T; assay type: cell-based, human
Description: as §6

## O=C(Nc1ccc(Cl)cc1)C1CCCN(C(=O)c2cccc(-c3ccco3)c2)C1 (centres unmarked) [CCG-203971, N-(4-chlorophenyl)-1-(3-(furan-2-yl)benzoyl)piperidine-3-carboxamide]
[1]
  matrix stiffness and TGF-β-mediated fibrogenesis: inhibits both matrix stiffness and TGF-β-mediated fibrogenesis
[2]
  anti-fibrotic activity: exhibits anti-fibrotic activity
[3]
  anti-fibrotic activity: exhibits anti-fibrotic activity
[4]; HS746T
  antitumor effect (number of living cells): significantly improved antitumor effect

## O=C(Nc1ccc(Cl)cc1)C1CN(C(=O)c2cccc(-c3ccco3)c2)CC(F)(F)C1 (centres unmarked) [CCG-222740, N-(4-Chlorophenyl)-5,5-difluoro-1-(3-(furan-2-yl)benzoyl)piperidine-3-carboxamide]
[5]
  scar tissue formation: effectively prevent scar tissue formation
[6]
  expression of alpha smooth muscle actin protein: prevent the expression of alpha smooth muscle actin protein
[4]; HS746T
  antitumor effect (number of living cells): significantly improved antitumor effect

## O=C(Nc1ccc(Cl)cc1)C1CN(C(=O)c2cccc(-c3ccncc3)c2)CC(F)(F)C1 (centres unmarked) [CCG-232601, N-(4-chlorophenyl)-5,5-difluoro-1-(3-(pyridin-4-yl)benzoyl)piperidine-3-carboxamide]
[7]
  antitumor effect (cell viability): exhibited antitumor effects
[8]
  antitumor effect (cell viability): exhibited antitumor effects
[9]
  invasion and metastasis (cells that penetrated the membrane): reduced the invasion and metastasis
[10]; MKN1, pretreated overnight, 10 mM β-hydroxybutyrate at first injection, FIG. 2
  extracellular acidification rate (ECAR) versus oxygen consumption rate (OCR): the glycolysis ECAR was higher than OCR
[10]; gastric cancer stem cells (MKN1)
  sensitivity to glucose deprivation: greatly increased the sensitivity to glucose deprivation
[11]
  invasion and metastasis (cells that penetrated the membrane): reduced the invasion and metastasis
[12]; MKN1, 5 μg/ml administered alone, CCK-8, FIG. 6
  cell viability lower than in the negative control group and the cisplatin-only group: 20%
[12]
  antitumor effect (cell viability): significantly improved antitumor effects
[13]
  development of bleomycin-induced dermal fibrosis: suppress the development of bleomycin-induced dermal fibrosis
[4]
  antitumor effect (cell viability): significantly improved antitumor effects
[14]; HS746T, pretreated overnight, 10 mM β-hydroxybutyrate at first injection, FIG. 2
  extracellular acidification rate (ECAR) versus oxygen consumption rate (OCR): the glycolysis ECAR was higher than OCR
[14]; gastric cancer stem cells (HS746T)
  sensitivity to glucose deprivation: greatly increased the sensitivity to glucose deprivation

## N.N.[Cl][Pt][Cl] [cisplatin]
[12]; MKN1, FIG. 4
  drug sensitivity upon cisplatin (CDDP) treatment: exhibited resistance to cisplatin
[12]
  antitumor effect (cell viability): did not exhibit antitumor effects
[12]; MKN1 versus SNU601 and NCIN87, cisplatin, FIG. 4
  drug sensitivity lower than that of the cancer cell lines: 20 to 40%
[4]
  antitumor effect (cell viability): did not exhibit antitumor effects
[4]; HS746T versus SNU601 and NCIN87, cisplatin, FIG. 4
  drug sensitivity lower than that of the cancer cell lines: 20 to 40%
[4]; HS746T, FIG. 4
  drug sensitivity upon cisplatin (CDDP) treatment: exhibited resistance to cisplatin
[4]; HS746T
  antitumor effect (number of living cells): did not exhibit an antitumor effect
